The text below walks through data of patent US7138411B2, “Substituted benzopyran derivatives for the treatment of inflammation” (G.D. Searle & Co., priority 1997, dated 2006).

In data set [1] the test system is carrageenan foot edema. The data set is described as follows: Rat carrageenan foot pad edema test. More on the design: inhibition in vivo: dose or concentration left out as unconfirmed. Particulars: po, 3 h, dosed orally, foot volume three hours after carrageenan, read-out: RAT PAW EDEMA % Inhibition. The format is in vivo, Male Sprague-Dawley rats. The procedure:
Rat Carrageenan Foot Pad Edema Test
Male Sprague-Dawley rats were selected in each group so that the average body weight was as close as possible. Rats were fasted with free access to water for over sixteen hours prior to the test. The rats were dosed orally (1 mL) with compounds suspended in vehicle containing 0.5% methylcellulose and 0.025% surfactant, or with vehicle alone. One hour later a subplantar injection of 0.1 mL of 1% solution of carrageenan/sterile 0.9% saline was administered and the volume of the injected foot was measured with a displacement plethysmometer connected to a pressure transducer with a digital indicator. Three hours after the injection of the carrageenan, the volume of the foot was again measured. The average foot swelling in a group of drug-treated animals was compared with that of a group of placebo-treated animals and the percentage inhibition of edema was determined (Otterness and Bliven, Laboratory Models for Testing NSAIDs, in Non-steroidal Anti-Inflammatory Drugs, (J. Lombardino, ed. 1985)).

Data set [2] can be described thus: Analgesia (Table I). The data set is classed as in vivo. Further details: inhibition in vivo: dose or concentration left out as unconfirmed. Particulars: read-out: ANALGESIA % Inhibition.
The target in data set [3] is T1, COX-2 (UniProt P35354).
T1 sequence (P35354 1-604): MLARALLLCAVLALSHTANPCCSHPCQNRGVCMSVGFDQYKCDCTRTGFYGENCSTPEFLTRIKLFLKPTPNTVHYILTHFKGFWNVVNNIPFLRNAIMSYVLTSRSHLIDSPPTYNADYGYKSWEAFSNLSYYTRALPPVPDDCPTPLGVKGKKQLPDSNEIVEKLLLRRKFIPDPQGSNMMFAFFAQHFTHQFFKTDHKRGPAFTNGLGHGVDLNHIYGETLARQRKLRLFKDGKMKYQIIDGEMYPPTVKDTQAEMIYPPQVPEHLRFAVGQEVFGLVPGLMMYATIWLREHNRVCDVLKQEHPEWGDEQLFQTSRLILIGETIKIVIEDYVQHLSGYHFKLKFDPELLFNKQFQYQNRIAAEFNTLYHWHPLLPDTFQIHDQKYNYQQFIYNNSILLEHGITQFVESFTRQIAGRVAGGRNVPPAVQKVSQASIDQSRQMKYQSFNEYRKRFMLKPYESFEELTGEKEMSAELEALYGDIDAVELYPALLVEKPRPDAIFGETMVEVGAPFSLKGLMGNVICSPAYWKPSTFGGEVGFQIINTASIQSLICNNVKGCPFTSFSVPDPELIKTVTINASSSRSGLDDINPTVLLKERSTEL
The data set is described as follows: Fast assay for COX-2 activity (PGE2 ELISA). Conditions: fast assay: 10 min pre-incubation at 25° C., reaction stopped after two minutes, pH 7.5. The data set is classed as biochemical, human or murine.
Experimental: The homogenate was centrifuged at 10,000×G for 30 minutes, and the resultant supernatant was stored at −80° C. before being assayed for COX activity.
Fast Assay for COX-1 and COX-2 Activity
COX activity was assayed as PGE2 formed/μg protein/time using an ELISA to detect the prostaglandin released. CHAPS-solubilized insect cell membranes containing the appropriate COX enzyme were incubated in a potassium phosphate buffer (0.05 M Potassium phosphate, pH 7.5, 2 μM phenol,1 μM heme, 300 μM epinephrine) with the addition of 20 μl of 100 μM arachidonic acid (10 μM). […] The PGE2 formed was measured by standard ELISA technology (Cayman Chemical).

Data set [4] has as its target T1, COX-2. Briefly: Assay for COX-2 activity (PGE2 ELISA). Conditions: read-out: COX-2 IC50; 10–20 minutes pre-incubation, reaction stopped after ten minutes, pH 8.0.
Experimental: Recombinant baculoviruses were isolated by transfecting 4 μg of baculovirus transfer vector DNA into SF9 insect cells (2×10^8) along with 200 ng of linearized baculovirus plasmid DNA by the calcium phosphate method. […] Recombinant viruses were purified by three rounds of plaque purification and high titer (10^7–10^8 pfu/mL) stocks of virus were prepared. For large scale production, SF9 insect cells were infected in 10 liter fermentors (0.5×10^6/mL) with the recombinant baculovirus stock such that the multiplicity of infection was 0.1. […] The homogenate was centrifuged at 10,000×G for 30 minutes, and the resultant supernatant was stored at −80° C. before being assayed for COX activity.
Assay for COX-1 and COX-2 Activity
COX activity was assayed as PGE2 formed/μg protein/time using an ELISA to detect the prostaglandin released. CHAPS-solubilized insect cell membranes containing the appropriate COX enzyme were incubated in a potassium phosphate buffer (50 mM, pH 8.0) containing epinephrine, phenol, and heme with the addition of arachidonic acid (10 μM). […] The PGE2 formed was measured by standard ELISA technology (Cayman Chemical).
Data set [5] has as its target COX-1 (UniProt P23219). Briefly: Assay for COX-1 activity (PGE2 ELISA). Conditions: read-out: COX-1 IC50; 10–20 minutes pre-incubation, reaction stopped after ten minutes, pH 8.0.

With `O=C(O)C1=Cc2cc(Cl)cc(F)c2OC1C(F)(F)F` (stereo not drawn) [Example 46, 6-Chloro-8-fluoro-2-trifluoromethyl-2H-1-benzopyran-3-carboxylic acid], the melting point was 190.8 to 193 °C. Also, the inhibition in vivo in data set [1] worked out at 59%. The inhibition in vivo in data set [2] amounted to 67%. The IC50 in data set [3] was 0.2 µM. Further, the IC50 in data set [4] worked out at 74 µM. In data set [5], the IC50 turned out to be 43 µM.

`O=C(O)C1=Cc2cc(Cl)c(Oc3ccccc3)cc2OC1C(F)(F)F` (stereo not drawn) [Example 177, 6-Chloro-7-phenoxy-2-(trifluoromethyl)-2H-1-benzopyran-3-carboxylic acid] had a melting point of 220.2 to 221.8 °C. Moreover, in data set [1] (@ 10 mpk (values marked *)), the inhibition in vivo at 10 mg/kg worked out at 59%. Besides, the inhibition in vivo at 10 mg/kg in data set [2] (@ 10 mpk (values marked *)) is 61%. This compound showed an IC50 in data set [3] below 0.1 µM. Besides, in data set [4], the IC50 was below 0.1 µM. In data set [5], the IC50 is 0.3 µM.

`O=C(O)C1=Cc2cc(Cl)c(Oc3ccc(Cl)cc3Br)cc2OC1C(F)(F)F` (stereo not drawn) [Example 188, 7-(2-Bromo-4-chlorophenoxy)-6-chloro-2-(trifluoromethyl)-2H-1-benzopyran-3-carboxylic acid] gave a melting point of 223.6 to 225.6 °C. Also, the inhibition in vivo in data set [1] was found to be 57%. Moreover, in data set [2], the inhibition in vivo was determined as 69%. In data set [3], this compound had an IC50 below 0.1 µM. For the same compound, the IC50 in data set [4] is below 0.1 µM. The IC50 in data set [5] was determined as 3.7 µM.
